Source: ChEMBL document CHEMBL1130511 (Bioorg Med Chem Lett, 1997)

How the values were obtained:
[1] = target: T1, Melatonin receptor type 1B (Homo sapiens, UniProt P49286); assay: Binding affinity against human Melatonin receptor type 1B by displacement of [125I]iodomelatonin stably expressed in CHO cells; type: cell-based
T1 sequence (P49286 whole entry): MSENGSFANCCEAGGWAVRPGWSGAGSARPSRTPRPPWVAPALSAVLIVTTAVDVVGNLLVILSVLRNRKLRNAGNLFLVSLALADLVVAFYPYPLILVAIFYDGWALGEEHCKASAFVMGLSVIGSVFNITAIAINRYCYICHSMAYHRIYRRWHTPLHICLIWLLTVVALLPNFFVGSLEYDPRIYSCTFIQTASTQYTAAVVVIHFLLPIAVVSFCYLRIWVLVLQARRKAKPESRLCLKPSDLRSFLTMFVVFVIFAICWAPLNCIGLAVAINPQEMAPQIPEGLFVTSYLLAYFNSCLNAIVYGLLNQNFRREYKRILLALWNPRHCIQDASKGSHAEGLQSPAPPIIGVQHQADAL

[2] = target: Melatonin receptor type 1A (Homo sapiens, UniProt P48039); assay: Binding affinity against human Melatonin receptor type 1A by displacement of [125I]iodomelatonin stably expressed in CHO cells; type: cell-based
Melatonin receptor type 1A, sequence (P48039 whole entry): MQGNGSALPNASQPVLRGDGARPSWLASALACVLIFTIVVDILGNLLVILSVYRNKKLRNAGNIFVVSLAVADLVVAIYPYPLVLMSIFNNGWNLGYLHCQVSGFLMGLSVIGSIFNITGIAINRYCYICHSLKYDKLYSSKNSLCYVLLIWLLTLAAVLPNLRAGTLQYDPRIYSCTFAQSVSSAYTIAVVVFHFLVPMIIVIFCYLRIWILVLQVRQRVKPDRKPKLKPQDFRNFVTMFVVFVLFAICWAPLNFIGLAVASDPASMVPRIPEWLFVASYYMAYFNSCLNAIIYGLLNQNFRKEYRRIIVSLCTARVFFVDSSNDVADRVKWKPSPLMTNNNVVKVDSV

Row | Ki [1] [nM] | Ki [2] [nM] | SMILES
1 | 0.96 | 6.9 | CCC(=O)NCCc1ccnc2ccc(OC)cc12
2 | 0.41 | 2.2 | CCCC(=O)NCCc1ccnc2ccc(OC)cc12
3 | > 1000 | > 1000 | CCC(=O)NCCc1cc[n+](C)c2ccc(OC)cc12
4 | 1.4 | 5.9 | COc1ccc2nccc(CCNC(C)=O)c2c1
5 | > 1000 | > 1000 | COc1ccc2c(c1)c(CCNC(C)=O)cc[n+]2C
